# Laboratory results published in patent publication US11807852B2, “Compositions and methods for reactivating latent immunodeficiency virus” (The J. David Gladstone Institutes, a testamentary trust …, priority 2014, dated 2023).
# “Also recorded” adds a separate entry of the source.
# Experiments:
# [1] = system: CD4+ T cells from HIV-1-infected individuals; assay: Cell viability (CellTiter-Blue, Zombie Violet) of ex vivo treated CD4+ T cells; format: cell-based, human; conditions: at the indicated concentrations (up to 500 nM)
# Description: FIGS. 15 A-G depict the structural formulae for AZ505, AZ506, and AZ391, and the reactivation of latent HIV-1 with SMYD2 inhibitor X2 (AZ391) in CD4^+ T cells from HIV-1 infected individuals. (A) Structures of each compound are shown. (B) Intracellular HIV-1 mRNA levels in CD4^+ T cells, obtained from an infected individual (#1036) and treated ex vivo with AZ391, JQ1 or a combination of both, in indicated concentrations, presented as fold induction relative to DMSO control. Activation with αCD3/αCD28-Dynabeads was performed as control. (C) Flow cytometry of T-cell activation markers CD69 and CD25 in the same experiment. For each treatment group, CD69^+ (left) and CD25^+ (right). Shown as percentage of positive cells relative to αCD3/αCD28-treated cells (D) Cell viability as measured by CellTiter-Blue® Cell Viability assay (Promega) and Zombie Violet Fixable Viability kit (BioLegend) and presented as percentage of DMSO control treated cells. Data points indicate average of three technical replicates of donor #1036. (E-G) Same experiments as in b-d but performed with CD4^+ T cells obtained from three additional individuals (2013, 2185, 2511) with a single concentration of AZ391 (500 nM). In f and g, average of the three biological replicates (±SD) is show. For (F), for each treatment group, CD69^+ (left) and CD25^+ (right).
# [2] = system: latent HIV-1 in primary CD4+ T cells; assay: Primary T-cell model of HIV latency (Greene model), NL4-3-Luc luciferase; format: cell-based
# Description: Peripheral blood mononuclear cells (PBMC) were isolated by Ficoll-Hypaque density gradient centrifugation of buffy coats from HIV-seronegative donors (Blood Centers of the Pacific). PBMCs were immediately processed to isolate CD4^+ T cells. Total CD4^+ T cells were isolated by negative selection, according to manufacturer's protocol, with the EasySep CD4^+ T-cell Enrichment Kit (Stem Cell Technologies). Isolated CD4^+ T cells were cultured in RPMI as described above at a concentration of 1×10^6 cells/ml for 24 h before HIV infection.
# CD4^+ T cells were counted, collected as pellets by centrifugation at 1500 rpm for 5 min at room temperature, and resuspended in the appropriate volume of concentrated viral NL4-3-Luc supernatant. Typically, 50-200 ng of p24Gag per 4×10^5 CD4^+ T cells were used. Spinoculations with NL4-3-Luc virus were performed in 96-well V-bottom plates with up to […] HLAC or CD4 T cells per well. All spinoculations were performed in volumes of 200 μl or less. Cells and virus were centrifuged at 2000 rpm for 1.5-2 h at room temperature. After spinoculation, cells were pooled and cultured at a concentration of 1×10^6 cells/ml in RPMI 1640 containing 10% FBS and supplemented with 5 μM saquinavir for 3 days to prevent residual spreading infection. Saquinavir was purchased from Sigma.
# For reactivation of latent HIV-1 provirus, cells were counted and collected as pellets by centrifugation at 1500 rpm for 10 min. Cells were then plated in 96-well U-bottom plates at concentrations of 1×10^6/200 μl in the presence of the indicated activator. Unless otherwise indicated, cells were cultured either in medium alone or stimulated with 5 μg/ml phytohemagglutinin (PHA) (Sigma), 10 ng/ml TNF-α, anti-CD3+anti-CD28 beads at a ratio of 1:1. SAHA, JQ1 and X2 were tested at the indicated concentrations. Cells were harvested 48 hr after stimulation, washed one time with PBS, and lysed in 60 μl of Cell Lysis Buffer (Promega). After 15 min of lysis, the luciferase activity in cell extracts was quantified with a BD Monolight Luminometer after mixing 20 μl of lysate with 100 μl of substrate (Luciferase Assay System-Promega). Relative light units were normalized to protein content determined by BCA assay (Pierce). Cell survival rates were measured by flow cytometry immediately before lysis.
# Since X2 activated HIV from latency in A2 and A72 cell lines, this compound was tested in a primary T-cell model of latency (Lassen, Greene). In this model, CD4+ T cells were infected in a single-round infection with HIV clone NL4-3-Luc to generate a latent infection in vitro. To reactivate latent HIV-1, cells were treated with the indicated compounds or a combination of PHA/IL-2 as a control for maximal activation. X2 in combination with JQ1 reactivated latent HIV-1 at 8-25% of the rate achieved by costimulation with PHA/IL-2 (FIG. 9). X2 in combination with Ingenol 3,20-dibenzoate reactivated latent HIV-1 at 30-85% of the rate achieved by costimulation with PHA/IL-2 (FIG. 10).
smiles,measurement,setting,value
N#Cc1cc(C(=O)NCCCN2CCCC2)cc(-c2ccccc2N2CCN(CCc3c[nH]c4ccccc34)CC2)c1 [AZ391],cell viability,[1],no impact on cell viability
same,reactivation of latent HIV-1 as % of the rate achieved by costimulation with PHA/IL-2,"[2]; in combination with Ingenol 3,20-dibenzoate",30-85%
same,reactivation of latent HIV-1 as % of the rate achieved by costimulation with PHA/IL-2,[2]; in combination with JQ1,8-25%
same,"reactivation of latent HIV-1, synergy",[2]; with JQ1,synergy
same,"reactivation of latent HIV-1, combination effect","[2]; with SAHA, listed as X2",modest activation; also recorded: minimal synergy
same,"reactivation of latent HIV-1, synergy","[2]; with ingenol 3,20-dibenzoate",synergy
